Patent US20140271606A1, “METHODS OF USING ADENOSINE RECEPTOR ANTAGONISTS FOR TREATING BLEEDING DISORDERS” (Bayer HealthCare LLC, priority 2013, published 2014)

Assays:
Hemophilia A mice = test: Tail cut blood loss in Hemophilia A mice; assay type: in vivo; conditions: 30 min bleeding
Description: In this Example, the effect of administering an adenosine receptor antagonist on reduction in blood loss in mice with Hemophilia A and Hemophilia B mice was analyzed. Male Hemophilia A or Hemophilia B mice, approximately eight to nine weeks of age and weighing, on average, approximately 25 grams, were used in this Example. The mice were anesthetized with isoflurane and the tails were placed in approximately 37-38° C. warmed 15-ml plastic tubes including 0.9% (by weight) saline for 10 minutes. The tails were then cut at 4 mm from the tip by scalpel and immediately placed back into separate pre-warmed (37-38° C.) 15-ml plastic tubes containing 10 ml of 0.9% (by weight) saline. Each mouse was allowed to bleed freely for 30 minutes. The adenosine 2a and 2b receptor antagonist, 4-(2-[7-Amino-2-(2-furyl)[1,2,4]triazolo[2,3-a][1,3,5]triazin-5-ylamino]ethyl)phenol (commercially available as ZM241385 from Tocris Bioscience, United Kingdom), was used in this Example. In a first sample group, ZM241385 was dissolved in 100% DMSO. In a second sample group, ZM241385 was dissolved in PEG400/ethanol/water (40/10/50 v/v/v). In a third sample group, ZM241385 was dissolved in PEG400/water (60/40 v/v). […] Blood loss was quantified gravimetrically by weighing the tubes before and after blood was collected.

Hemophilia B mice = test: Tail cut blood loss in Hemophilia B mice; assay type: in vivo; conditions: 100 mg/kg intravenous in PEG400/water 60/40, 5 min prior to tail cut, 30 min bleeding, vs excipient (FIG. 4)
Description: In this Example, the effect of administering an adenosine receptor antagonist on reduction in blood loss in mice with Hemophilia A and Hemophilia B mice was analyzed. Male Hemophilia A or Hemophilia B mice, approximately eight to nine weeks of age and weighing, on average, approximately 25 grams, were used in this Example. The mice were anesthetized with isoflurane and the tails were placed in approximately 37-38° C. warmed 15-ml plastic tubes including 0.9% (by weight) saline for 10 minutes. The tails were then cut at 4 mm from the tip by scalpel and immediately placed back into separate pre-warmed (37-38° C.) 15-ml plastic tubes containing 10 ml of 0.9% (by weight) saline. Each mouse was allowed to bleed freely for 30 minutes. Nineteen mice having Hemophilia B were injected with the third sample of adenosine receptor antagonist solution by intravenous injection in the amount of 100 mg/kg ZM241385 five minutes prior to the tail cut. Nineteen control mice were treated with 100 μl of PEG400/water (60/40 v/v) without any adenosine receptor antagonist prior to the tail cut to serve as an untreated control. Blood loss was quantified gravimetrically by weighing the tubes before and after blood was collected.

Measured: blood loss

Nc1nc(NCCc2ccc(O)cc2)nc2nc(-c3ccco3)nn12 [ZM241385, 4-(2-[7-Amino-2-(2-furyl)[1,2,4]triazolo[2,3-a][1,3,5]triazin-5-ylamino]ethyl)phenol]
reduced blood loss: Hemophilia A mice; 100 mg/kg intraperitoneal in 100% DMSO, 30 min prior to tail cut, vs excipient (FIG. 2) | Hemophilia A mice; 300 mg/kg intraperitoneal in PEG400/ethanol/water 40/10/50, 30 min prior to tail cut, vs excipient (FIG. 3) | Hemophilia B mice
